Results published in patent US10590106B2, “Certain chemical entities, compositions, and methods” (NeuPharma, Inc., priority 2012, dated 2020).

How the values were obtained:
[1] = test system: A549 cells; experiment: Inhibition of cancer cell growth, MTT or MTS assay, A549; type: cell-based; settings: Homo sapiens, 72 h incubation
Method: (§1) Inhibition of cell growth by compounds was measured using MTT or MTS assay. Tumor cell lines were purchased from ATCC (American Type Culture Collection, Manassas, Va.). All cell lines were maintained in RPMI 1640 (Hyclone) supplemented with 10% fetal bovine serum (FBS, Hyclone), glutamine (2 mM, Hyclone), and antibiotics (penicillin 100 U/mL and streptomycin 50 μg/mL) at 37° C. in a humidified atmosphere of 5% CO2 in air. Taxol (as a positive control, Sigma) and compounds were dissolved in DMSO (Sigma), and the final concentration of DMSO in the medium was 1%. Tumor cells were plated in 96-well plates at densities of about 2000 (A375) or 4000 (A549 and Colo205) cells/well of a 96-well plate and allowed to adhere/grow for 24 h. They were then treated with various concentrations of drug and incubated for 72 h. For MTT method, medium was then removed by inverting and tapping the plates. 100 μL of MTT (0.5 mg/ml) was added to each well followed by an incubated at 37° C. for 4 h. MTT was then removed and 200 μL of DMSO was added to each well, and the ODs at 570 nm were measured after a 5 second shaking cycle in a 96-well spectrophotometer. For MTS method, 20 μL MTS (CellTiter 96 Aqueous One Solution, Promega) was added to each well followed by an incubated at 37° C. for 2-4 h, solutions were then directly put in a 96-well spectrophotometer, and the ODs at 490 nm were measured.
(§2) All concentrations of compounds were tested in triplicate and controls were averaged over 4 wells. IC50 was calculated by plotting the concentration of compound vs the percentage of inhibition in treated wells using GraphPad Prism 5. […] The scale utilized in Tables […] is as follows: +++ less than 1000 nM; ++ between 1000 nM and 5000 nM; and + greater than 5000 nM. The scale utilized in Table 8 is as follows: +++ less than 2000 nM; ++ between 2000 nM and 5000 nM; and + greater than 5000 nM.

[2] = test system: A375 cells; experiment: Inhibition of cancer cell growth, MTT or MTS assay, A375; type: cell-based; settings: Homo sapiens, A-375; 72 h incubation
Method: as §1, §2

[3] = biological target: KDR (VEGFR2) (Homo sapiens (Human), UniProt P35968); experiment: Inhibitory activity against kinase KDR, Z'-LYTE method (Invitrogen); type: biochemical; settings: for inhibition at 1 µM: 1 μM compound, read-out: Inhibition (% inhibition at 1 μM) against KDR
Method: Inhibitory activities of compounds against KDR (VEGFR2) were also measured by Invitrogen using Z′-LYTE® Method as described above with the following modification. The 2× KDR (VEGFR2)/Tyr 01 mixture is prepared in 50 mM HEPES pH 7.5, 0.01% BRIJ-35, 10 mM MgCl2, 1 mM EGTA. The final 10 μL Kinase Reaction consists of 0.5-11.7 ng KDR (VEGFR2) and 2 μM Tyr 01 in 50 mM HEPES pH 7.5, 0.01% BRIJ-35, 10 mM MgCl2, 1 mM EGTA. After the 1 hour Kinase Reaction incubation, 5 μL of a 1:256 dilution of Development Reagent B is added.
The scale utilized in Table 5 is as follows: +++ less than 100 nM; and ++ greater than 100 nM

[4] = biological target: BRAF V600E (Homo sapiens (Human), UniProt P15056, V600E); experiment: Inhibitory activity against kinase BRAF V600E, Z'-LYTE method (Invitrogen); type: biochemical; settings: for inhibition at 1 µM: 1 μM compound, read-out: Inhibition (% inhibition at 1 μM) against BRAF V600E
Method: Inhibitory activities Inhibitory activities of compounds against BRAF, and BRAF V600E were measured by Invitrogen using Z′-LYTE® Method as briefly described in the following. 4× Test compounds are dissolved in 1% DMSO. […] ATP solutions are diluted to a 4×ATP working concentration in Kinase Buffer (50 mM HEPES pH 7.5, 0.01% BRIJ-35, 10 mM MgCl2, 1 mM EGTA). Reaction started by 30-second shaking of mixture consisting of 2.5 μL 4× test compound, […] and 2.5 μL 4×ATP Solution on Bar-coded Corning, low volume NBS, black 384-well plate (Corning Cat. #3676). Then the mixture was incubated for 60-minute at room temperature for the kinase reaction, followed by addition of 5 μL of a 1:1024 dilution of development reagent A and 30-second plate shake. The mixture was then incubated for another 60-minute at room temperature for development reaction. Fluorescence was read by plate reader. IC50 was calculated by plotting the concentration of compound vs the percentage of inhibition in treated wells using GraphPad Prism 5.
Table 2 and 3 show % inhibition at 1 μM of several compounds of the invention against BRAF and BRAF V600E, respectively, using Z′-LYTE® method.
The scale utilized in Table 4 is as follows: +++ less than 100 nM; and ++ greater than 100 nM.

Sequence of BRAF V600E (P15056 whole entry V600E): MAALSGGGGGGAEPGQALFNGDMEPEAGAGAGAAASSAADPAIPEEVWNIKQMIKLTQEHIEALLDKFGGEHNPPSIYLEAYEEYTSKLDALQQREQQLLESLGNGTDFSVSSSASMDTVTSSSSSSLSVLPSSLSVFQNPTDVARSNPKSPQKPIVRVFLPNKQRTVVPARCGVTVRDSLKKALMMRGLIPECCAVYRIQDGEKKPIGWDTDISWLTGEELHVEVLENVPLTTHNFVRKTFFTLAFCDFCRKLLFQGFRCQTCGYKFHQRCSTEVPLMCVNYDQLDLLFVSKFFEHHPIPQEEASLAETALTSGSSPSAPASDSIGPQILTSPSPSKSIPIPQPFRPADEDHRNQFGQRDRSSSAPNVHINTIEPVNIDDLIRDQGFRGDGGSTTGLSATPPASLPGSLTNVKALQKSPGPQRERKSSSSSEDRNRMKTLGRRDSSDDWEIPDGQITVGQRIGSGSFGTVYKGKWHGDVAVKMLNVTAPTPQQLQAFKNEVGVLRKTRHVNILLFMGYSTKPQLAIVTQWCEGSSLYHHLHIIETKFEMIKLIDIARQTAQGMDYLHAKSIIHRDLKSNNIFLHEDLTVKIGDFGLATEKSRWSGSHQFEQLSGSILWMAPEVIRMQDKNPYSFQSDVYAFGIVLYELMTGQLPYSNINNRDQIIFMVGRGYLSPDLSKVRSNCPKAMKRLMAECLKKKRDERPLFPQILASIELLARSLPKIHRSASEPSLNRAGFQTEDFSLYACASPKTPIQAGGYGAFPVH
Sequence of KDR (VEGFR2) (P35968 20-1356): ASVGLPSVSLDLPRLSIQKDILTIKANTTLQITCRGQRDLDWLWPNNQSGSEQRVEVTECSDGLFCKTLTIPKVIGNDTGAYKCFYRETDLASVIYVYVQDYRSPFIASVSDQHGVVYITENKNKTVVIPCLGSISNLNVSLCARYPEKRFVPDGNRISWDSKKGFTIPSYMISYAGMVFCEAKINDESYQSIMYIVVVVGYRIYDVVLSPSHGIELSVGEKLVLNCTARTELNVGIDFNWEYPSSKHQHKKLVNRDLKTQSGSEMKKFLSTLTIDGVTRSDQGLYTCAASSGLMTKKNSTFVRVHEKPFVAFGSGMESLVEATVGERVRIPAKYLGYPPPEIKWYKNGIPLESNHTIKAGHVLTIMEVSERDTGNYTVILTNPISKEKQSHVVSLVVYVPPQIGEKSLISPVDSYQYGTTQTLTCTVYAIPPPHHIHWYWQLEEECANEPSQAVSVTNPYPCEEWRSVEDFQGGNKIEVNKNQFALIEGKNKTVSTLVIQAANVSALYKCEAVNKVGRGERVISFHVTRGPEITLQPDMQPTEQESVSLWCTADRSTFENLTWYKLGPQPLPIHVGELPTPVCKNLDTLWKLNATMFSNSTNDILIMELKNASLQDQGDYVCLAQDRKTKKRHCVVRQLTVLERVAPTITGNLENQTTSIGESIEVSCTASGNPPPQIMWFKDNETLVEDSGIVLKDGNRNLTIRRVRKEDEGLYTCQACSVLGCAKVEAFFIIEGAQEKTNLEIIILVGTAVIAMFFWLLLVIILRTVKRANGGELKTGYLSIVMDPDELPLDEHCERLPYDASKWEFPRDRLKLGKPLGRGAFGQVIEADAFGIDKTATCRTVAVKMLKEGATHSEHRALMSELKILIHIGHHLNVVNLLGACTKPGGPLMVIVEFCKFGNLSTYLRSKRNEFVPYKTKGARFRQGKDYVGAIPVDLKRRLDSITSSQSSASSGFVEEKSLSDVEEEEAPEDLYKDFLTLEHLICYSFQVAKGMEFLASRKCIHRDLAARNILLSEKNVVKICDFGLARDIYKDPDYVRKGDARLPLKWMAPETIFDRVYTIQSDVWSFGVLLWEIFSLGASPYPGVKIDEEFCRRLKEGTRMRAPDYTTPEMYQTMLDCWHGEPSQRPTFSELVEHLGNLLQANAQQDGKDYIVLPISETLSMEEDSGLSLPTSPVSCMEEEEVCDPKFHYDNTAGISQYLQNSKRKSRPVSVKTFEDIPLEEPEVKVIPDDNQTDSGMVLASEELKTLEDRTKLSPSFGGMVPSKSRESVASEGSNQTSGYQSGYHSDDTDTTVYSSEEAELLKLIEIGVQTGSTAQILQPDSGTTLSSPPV

Row | SMILES | IC50 [1] [µM] | IC50 [2] [µM] | inhibition at 1 µM [3] [%] | inhibition at 1 µM [4] [%] | IC50 [3] [µM] | IC50 [4] [µM]
1 | O=C(Nc1ccc(F)c(Oc2ccc3ncc(N4CCOCC4)nc3c2)c1)c1ccc(Cl)c(C(F)(F)F)c1 [Compound C008, 4-chloro-N-(4-fluoro-3-((3-morpholinoquinoxalin-6-yl)oxy)phenyl)-3-(trifluoromethyl)benzamide] | 2 to 5 | 1 to 5 |  |  |  | 
2 | CCCS(=O)(=O)Nc1ccc(F)c(Oc2ccc3ncc(N4CCOCC4)nc3c2)c1 [Compound C012, N-(4-fluoro-3-((3-morpholinoquinoxalin-6-yl)oxy)phenyl)propane-1-sulfonamide] | > 5 | > 5 |  |  |  | 
3 | O=C(Nc1cccc(F)c1)Nc1cccc(Oc2ccc3ncc(N4CCNCC4)nc3c2)c1 [Compound C037, 1-(3-fluorophenyl)-3-(3-((3-(piperazin-1-yl)quinoxalin-6-yl)oxy)phenyl)urea] | > 5 |  | 70 to 89 | > 89 |  | 
4 | CCCS(=O)(=O)Nc1cccc(Oc2ccc3nccnc3c2)c1 [Compound C007, N-(3-(quinoxalin-6-yloxy)phenyl)propane-1-sulfonamide] | > 5 | > 5 |  |  |  | 
5 | O=C(Nc1ccc(F)cc1)Nc1ccc(F)c(Oc2ccc3ncc(N4CCOCC4)nc3c2)c1 [Compound C053, 1-(4-fluoro-3-((3-morpholinoquinoxalin-6-yl)oxy)phenyl)-3-(4-fluorophenyl)urea] |  | 1 to 5 | 70 to 89 | > 89 |  | 
6 | O=C(Nc1ccc(Cl)c(F)c1)Nc1ccc(F)c(Oc2ccc3ncc(N4CCOCC4)nc3c2)c1 [Compound C058, 1-(4-chloro-3-fluorophenyl)-3-(4-fluoro-3-((3-morpholinoquinoxalin-6-yl)oxy)phenyl)urea] | 2 to 5 |  | 70 to 89 | > 89 |  | 
7 | O=C(Nc1cccc(Cl)c1)Nc1ccc(F)c(Oc2ccc3ncc(N4CCOCC4)nc3c2)c1 [Compound C055, 1-(3-chlorophenyl)-3-(4-fluoro-3-((3-morpholinoquinoxalin-6-yl)oxy)phenyl)urea] | > 5 |  | 70 to 89 | > 89 |  | 
8 | O=C(Nc1ccc(Cl)cc1)Nc1ccc(F)c(Oc2ccc3ncc(N4CCOCC4)nc3c2)c1 [Compound C057, 1-(4-chlorophenyl)-3-(4-fluoro-3-((3-morpholinoquinoxalin-6-yl)oxy)phenyl)urea] |  |  | 70 to 89 | > 89 |  | 
9 | CCCS(=O)(=O)Nc1cc(F)cc(Oc2ccc3ncc(N4CCOCC4)nc3c2)c1 [Compound C030, N-(3-fluoro-5-((3-morpholinoquinoxalin-6-yl)oxy)phenyl)propane-1-sulfonamide] |  | > 5 |  |  |  | 
10 | O=C(Nc1ccc(Cl)cc1)Nc1ccc(Oc2ccc3ncc(N4CCOCC4)nc3c2)cc1 [Compound C085, 1-(4-chlorophenyl)-3-(4-((3-morpholinoquinoxalin-6-yl)oxy)phenyl)urea] |  |  |  | 70 to 89 |  | 
11 | O=C(Nc1cccc(Oc2ccc3nccnc3c2)c1)c1cccc(F)c1 [Compound C004, 3-fluoro-N-(3-(quinoxalin-6-yloxy)phenyl)benzamide] |  | > 5 | < 70 | 70 to 89 |  | 
12 | O=C(Nc1ccc(Oc2ccc3nccnc3c2)cc1)c1cccc(C(F)(F)F)c1 [Compound C078, N-(4-(quinoxalin-6-yloxy)phenyl)-3-(trifluoromethyl)benzamide] |  | > 5 |  | 70 to 89 |  | 
13 | O=C(Nc1ccc(F)c(Cl)c1)Nc1ccc(F)c(Oc2ccc3ncc(N4CCOCC4)nc3c2)c1 [Compound C056, 1-(3-chloro-4-fluorophenyl)-3-(4-fluoro-3-((3-morpholinoquinoxalin-6-yl)oxy)phenyl)urea] | > 5 |  | 70 to 89 | > 89 |  | 
14 | O=C(Nc1ccc(Oc2ccc3nccnc3c2)cc1F)c1cncc(C(F)(F)F)c1 [Compound C099, N-(2-fluoro-4-(quinoxalin-6-yloxy)phenyl)-5-(trifluoromethyl)nicotinamide] |  | > 5 |  | < 70 |  | 
15 | O=C(Nc1ccc(Oc2ccc3ncc(O)nc3c2)cc1)Nc1ccc(Cl)c(C(F)(F)F)c1 [Compound C103, 1-(4-chloro-3-(trifluoromethyl)phenyl)-3-(4-((3-hydroxyquinoxalin-6-yl)oxy)phenyl)urea] | > 5 |  |  |  |  | 
16 | O=C(Nc1ccc(F)c(Oc2ccc3nccnc3c2)c1)c1cccc(F)c1 [Compound C017, 3-fluoro-N-(4-fluoro-3-(quinoxalin-6-yloxy)phenyl)benzamide] |  | > 5 |  | 70 to 89 |  | 
17 | CCCS(=O)(=O)Nc1cc(F)cc(Oc2ccc3nccnc3c2)c1 [Compound C019, N-(3-fluoro-5-(quinoxalin-6-yloxy)phenyl)propane-1-sulfonamide] |  | 1 to 5 |  | < 70 |  | 
18 | CCCNC(=O)Nc1cccc(Oc2ccc3nccnc3c2)c1 [Compound C071, 1-propyl-3-(3-(quinoxalin-6-yloxy)phenyl)urea] |  | > 5 | < 70 | < 70 |  | 
19 | O=C(Nc1ccc(Oc2ccc3ncc(N4CCOCC4)nc3c2)cc1)Nc1ccc(C(F)(F)F)cc1 [Compound C083, 1-(4-((3-morpholinoquinoxalin-6-yl)oxy)phenyl)-3-(4-(trifluoromethyl)phenyl)urea] |  | > 5 | 70 to 89 | 70 to 89 |  | 
20 | O=C(Nc1ccc(Oc2ccc3nccnc3c2)cc1F)c1ccnc(C(F)(F)F)c1 [Compound C100, N-(2-fluoro-4-(quinoxalin-6-yloxy)phenyl)-2-(trifluoromethyl)isonicotinamide] |  | > 5 |  | < 70 |  | 
21 | O=C(Nc1cccc(Oc2ccc3nccnc3c2)c1)NC1CC1 [Compound C072, 1-cyclopropyl-3-(3-(quinoxalin-6-yloxy)phenyl)urea] |  | > 5 |  |  |  | 
22 | O=C(Nc1cccc(Cl)c1)Nc1ccc(Oc2ccc3nccnc3c2)c(F)c1 [Compound C101, 1-(3-chlorophenyl)-3-(3-fluoro-4-(quinoxalin-6-yloxy)phenyl)urea] |  | < 1 |  | 70 to 89 |  | 
23 | O=C(Nc1cccc(F)c1)Nc1cccc(Oc2ccc3ncc(N4CCOCC4)nc3c2)c1 [Compound C042, 1-(3-fluorophenyl)-3-(3-((3-morpholinoquinoxalin-6-yl)oxy)phenyl)urea] | > 5 |  | 70 to 89 | > 89 |  | 
24 | COc1ccc(NC(=O)Nc2cccc(Oc3ccc4nccnc4c3)c2)cc1 [Compound C069, 1-(4-methoxyphenyl)-3-(3-(quinoxalin-6-yloxy)phenyl)urea] |  |  |  |  | < 0.1 | < 0.1
25 | O=C(Nc1ccc(Cl)cc1)Nc1ccc(Oc2ccc3nccnc3c2)c(F)c1 [Compound C102, 1-(4-chlorophenyl)-3-(3-fluoro-4-(quinoxalin-6-yloxy)phenyl)urea] |  |  |  | 70 to 89 |  | 
26 | O=C(Nc1cc(F)cc(F)c1)Nc1cccc(Oc2ccc3ncc(N4CCOCC4)nc3c2)c1 [Compound C045, 1-(3,5-difluorophenyl)-3-(3-((3-morpholinoquinoxalin-6-yl)oxy)phenyl)urea] | > 5 |  | < 70 | 70 to 89 |  | 
